The text below walks through data of ChEMBL document CHEMBL3217584, “Pharmacokinetics of bendamustine in the central nervous system: chemoinformatic screening followed by validation in a murine model” (Medchemcomm, 2012).

Data set [1] in a line: Half life in C57BL/6J mouse serum at 70 mg/kg, ip by CE-UV analysis. It counts as ADME, organism-based. The arrangement: dose 70 mg/kg, route intraperitoneal.
The next data set deals with Brain. Put plainly: Drug uptake in C57BL/6J mouse brain at 70 mg/kg, ip measured at 20 to 40 mins by CE-UV analysis. It counts as ADME, organism-based. Also noted: dose 70 mg/kg, route intraperitoneal. To be noted: in vivo.
Data set [2] can be described thus: Cmax in C57BL/6J mouse CSF at 70 mg/kg, ip measured at 20 to 40 mins by CE-UV analysis. The data set is classed as ADME, organism-based, Cerebrospinal fluid. The arrangement: dose 70 mg/kg, route intraperitoneal.
Data set [3] is described as follows: AUC in C57BL/6J mouse serum at 70 mg/kg, ip by CE-UV analysis. It counts as ADME, organism-based, Plasma. Also noted: dose 70 mg/kg, route intraperitoneal.
A short description of data set [4]: Ratio of AUC in C57BL/6J mouse CSF to AUC in C57BL/6J mouse serum. The data set is classed as ADME.
A short description of data set [5]: Drug uptake in C57BL/6J mouse eye at 70 mg/kg, ip measured at 20 to 40 mins by CE-UV analysis. The arrangement: dose 70 mg/kg, route intraperitoneal. The data set is classed as ADME, organism-based. To be noted: in vivo.
Data set [6] can be described thus: AUC in C57BL/6J mouse CSF at 70 mg/kg, ip by CE-UV analysis. The data set is classed as ADME, organism-based. The arrangement: dose 70 mg/kg, route intraperitoneal.

Turning to `Cn1c(CCCC(=O)O)nc2cc(N(CCCl)CCCl)ccc21` [BENDAMUSTINE], the half-life in data set [1] was 40 min. Further, the Drug uptake entry (with Brain; in data set [5]) was “Active” in each case. In data set [2], this molecule showed a Cmax of 393 µM. Further, the AUC in data set [3] is 575 µM·h; in data set [6] it was 210 µM·h. The “Ratio AUC” value in data set [4] was 35%.

One may read the half-life as the time in which the quantity being followed falls by half. Read a high half-life as slow decline. The Cmax is the maximum level reached in the sampled fluid or tissue. A word on the AUC: it is concentration integrated over time.
